{
  "source": "patent US11040108B2",
  "about": "“Amino acid- and peptide-steroid conjugates and use thereof” (BRANDEIS UNIVERSITY, priority 2016, dated 2021)",
  "key": {"[1]": {"test_system": "HS-5 cell line (human bone marrow stroma cell line)", "assay": "MTT assay, cell viability of HS-5", "assay_type": "cell-based", "conditions": "12.5 μM, 48 hours (FIG. 5A)", "protocol": "(§1) HeLa, Saos-2, HS-5, HepG2, T98G, and A2780 cells were purchased from American-type Culture Collection (ATCC, USA). A2780cis cell was purchased from Sigma. HeLa cells, HepG-2 cells, and T98G cells were cultured in MEM Medium supplemented with 10% v/v fetal bovine serum, 100 U/mL penicillin, and 100 μg/mL streptomycin. Saos-2 cells were cultured in McCoy's 5a Medium (for Saos-2) supplemented with 15% v/v fetal bovine serum, 100 U/mL penicillin, and 100 μg/mL streptomycin. HS-5 cells were cultured in Dulbecco's Modified Eagle's medium (DMEM) supplemented with 10% v fetal bovine serum (FBS), 100 U/mL penicillin, and 100 μg/mL streptomycin. A2780cis cells were cultured in RPMI 1640 Medium supplemented with 10% v/v fetal bovine serum, 100 U/mL penicillin, and 100 μg/mL streptomycin (cisplatin only necessary every 2-3 passages). All cells were maintained at 37° C. in a humidified atmosphere of 5% CO2.\n(§2) An MTT assay was used to test the cytotoxicity. All different cell lines were seeded in 96-well plates at 1×10^5 cells/well for 24 hours followed by removal of the culture medium and subsequent addition of culture medium containing different concentrations of the precursors. At designated time (24/48/72 hours), 10 μL MTT solution (5 mg/mL) was added to each well and incubated at 37° C. for another 4 hours, and then 100 μL of SDS-HCl solution was added to stop the reduction reaction and dissolve the purple formazan. The absorbance of each well at 595 nm was measured by a multimode microplate reader. The cytotoxicity assay was performed three times and the average value of the three measurements was taken.\nTo verify the selectivity of 1a against cancer cells, the HS-5 cell line (human bone marrow stroma cell line) was used; HS-5 hardly overexpresses ALP on cell surface. […] To further confirm that ALP on cell surface (i.e., as an ectophosphatase) contributed to the inhibitory activity of 1a, A2780cis were incubated with 1a and ALP (1 U/mL).\nAdditional cell viability assays were carried out using conjugates 1a and 1b, optionally with 3, against HepG2 human liver carcinoma cells, Saos-2 osteosarcoma cells, T98G glioblastoma cells, HS-5 (normal bone marrow stromal cells), A2780 ovarian cancer cells (parental line to A2780cis), and Kuramochi ovarian cancer cells. Conjugate 1a was particularly effective against ovarian and cervical cancer cells."}, "HeLa cells": {"test_system": "HeLa cells", "assay": "MTT assay, cytotoxicity against HeLa", "assay_type": "cell-based, human", "conditions": "for IC50: Homo sapiens, HeLa, 48 h, read-out: IC50 against HeLa cell", "protocol": "as §1, §2\nTo confirm that assemblies of the cholesterol conjugate are able to inhibit other cancer cell lines, 1a was incubated with HeLa cells, a widely studied malignant cervical cancer cell line."}, "[2]": {"assay": "TEM of assemblies in aqueous solution", "assay_type": "physicochemical", "conditions": "1.0 wt %; for diameter of assemblies on direct dissolution in water: without ALP, 1b spheres-like vesicle, 2b nanoribbon", "protocol": "Sample solution (5 sufficient to cover the grid surface) was placed on the grid. Approximately 10 sec later, sample was rinsed by placing a large drop of the ddH2O on parafilm and allowing the grid to touch the water drop, with the sample-loaded surface facing the parafilm. The grid was tilted and water was gently absorbed from the edge of the grid using a filter paper sliver. This procedure was repeated 3 times. Immediately after rinsing, the staining was conducted by placing a large drop of the uranyl acetate (UA) stain solution on parafilm and allowing the grid to touch the stain solution drop, with the sample-loaded surface facing the parafilm. The grid was tilted and the stain solution was gently absorbed from the edge of the grid using a filter paper sliver. Next, the grid was allowed to dry in air and the grid was examined as soon as possible.\nTo further understand the inhibitory activity of 1a, transmission electron microscopy (TEM) was used to confirm the EISA of 1b. […] In contrast, uniform nanofibers (diameter of 10±2 nm) formed after the addition of ALP (1 U/mL) into the solution of 1a (FIG. 3B). The resulted nanofibers entangled with each other to result in a viscous solution. […] But the direct dissolution of 2b (1.0 wt %) provided an aqueous solution containing nanoribbon with the diameter of 17±2 nm and in several hundred nanometer length (FIG. 4B). These observations, collectively, confirmed that enzymatic reaction modulated the morphology of the assemblies of the cholesterol conjugates, which partially contributed to the different inhibitory activities of 1a, 1b, 2a, and 2b. That is, being exposed to the cancer cell, 1a (or 2a) turns into 1b (or 2b), a process catalyzed by the extra- or intracellular enzymes of the cancer cells; the resulting 1b (or 2b) self-assembled to form nanoscale assemblies that result in death of the cancer cell."}, "A2780cis cells": {"test_system": "A2780cis cells", "assay": "MTT assay, cytotoxicity against A2780cis", "assay_type": "cell-based, human", "protocol": "as §1, §2\nThe activity of conjugate 1a against a platinum-resistant, ovarian cancer cell line (A2780cis) (Behrens et al., “Characterization of a Cis-Diamminedichloroplatinum(Ii)-Resistant Human Ovarian Cancer Cell Line and its Use in Evaluation of Platinum Analogues,” Cancer Res. 47:414 (1987); Masuda et al., “Increased DNA Repair as a Mechanism of Acquired Resistance to Cis-Diamminedichloroplatinum (II) in Human Ovarian Cancer Cell Lines,” Cancer Res. 48:5713 (1988), which are hereby incorporated by reference in their entirety) was first examined. To assess the efficacy of conjugate 1a, the assay was carried out in parallel using the known, clinically used cytotoxic agent, cisplatin."}, "[3]": {"test_system": "HeLa, A2780cis, OVASHO, MES-SA/dx5 and Saos-2 cells", "assay": "NBD visualization of nano-aggregates in cancer cell lines (CLSM)", "assay_type": "cell-based", "conditions": "25 μM; 11a in all five cell lines, 11b in OVASHO and MES-SA/dx5", "protocol": "Different cancer cells at the density of 1.5×10^5 were seeded onto 3.5 cm confocal dish. After the growth of cells in cell incubator for 24 h, 11a (or 11b) at 25 μM was added to the above solution with completed medium. At designated times, PBS was used to wash cells 3 times for 1 minute. Hoechst 33342 was used to stain cell nucleus for 10 minutes, and cells were then washed using live cell imaging solution 3 times for 1 minute. Cells were maintained in live cell imaging solution, and CLSM was carried out immediately. The excitation of wavelength was 488 nm, and the emission was 500 nm to 596 nm."}, "A2780 cell line": {"test_system": "A2780 cell line", "assay": "Cell viability of unstimulated or selected A2780 cell line (acquired resistance)", "assay_type": "cell-based", "conditions": "after five weeks treatment with gradually increased concentrations; 24, 48, 72 h", "protocol": "as §2\nThe activity of 1a against non-drug resistant cancer cells was assessed using the A2780 cell line."}, "[4]": {"conditions": "48 hours (FIG. 9A), unit inferred"}, "[5]": {"conditions": "read-out: IC50 against A2780cis, 72 hours"}, "[6]": {"conditions": "concentration of 100 μM (FIG. 10)"}},
  "note": "Like-named read-outs stand apart in the source and are kept apart here.",
  "data": [
    {"smiles": "CC(C)CCC[C@@H](C)C1CC[C@H]2[C@@H]3CC=C4CC(OC(=O)NC(Cc5ccc(O)cc5)C(=O)O)CC[C@]4(C)[C@H]3CC[C@]12C", "note": "(stereo partly drawn) [1b, Cholesterol-D-Tyr]", "values": [
      {"measurement": "cell viability / proliferation of HS-5", "setting": "[1]", "result": "hardly inhibited"},
      {"measurement": "IC50", "setting": "HeLa cells", "result": 89.7, "unit": "µM"},
      {"measurement": "diameter of assemblies on direct dissolution in water", "setting": "[2]", "result": "25±2", "unit": "nm"},
      {"measurement": "cell viability / proliferation of A2780cis", "setting": "A2780cis cells; 12.5 μM, 48 hours (FIG. 5A)", "result": "hardly inhibited"},
      {"measurement": "IC50", "setting": "A2780cis cells; Homo sapiens, A2780cis, 72 h, read-out: IC50 against A2780cis, 72 hours", "result": 50, "unit": "µM"}
    ]},
    {"smiles": "CC(C)CCC[C@@H](C)C1CC[C@H]2[C@@H]3CC=C4CC(OC(=O)NC(Cc5ccc(OP(=O)(O)O)cc5)C(=O)O)CC[C@]4(C)[C@H]3CC[C@]12C", "note": "(stereo partly drawn) [2a, Cholesterol-(phospho)L-Tyr]", "values": [
      {"measurement": "IC50", "setting": "HeLa cells; [4]", "result": 43.8, "unit": "µM"},
      {"measurement": "morphology in aqueous solution without ALP", "setting": "[2]; pH 7.4", "result": "disorder aggregates"},
      {"measurement": "diameter of nanofibers formed after addition of ALP", "setting": "[2]; pH 7.4, ALP 1 U/mL, 24 hours", "result": "15±2", "unit": "nm"},
      {"measurement": "IC50 against A2780cis", "setting": "A2780cis cells; 72 hours", "result": 15.2, "unit": "µg/mL"},
      {"measurement": "IC50", "setting": "A2780cis cells; [5]", "result": 22, "unit": "µM"}
    ]},
    {"smiles": "CC(C)CCC[C@@H](C)C1CC[C@H]2[C@@H]3CC=C4CC(OC(=O)NC(Cc5ccc(O)cc5)C(=O)O)CC[C@]4(C)[C@H]3CC[C@]12C", "note": "(stereo partly drawn) [2b, Cholesterol-L-Tyr]", "values": [
      {"measurement": "IC50", "setting": "HeLa cells; [4]", "result": 59.2, "unit": "µM"},
      {"measurement": "diameter of assemblies on direct dissolution in water", "setting": "[2]", "result": "17±2", "unit": "nm"},
      {"measurement": "IC50", "setting": "A2780cis cells; [5]", "result": 36, "unit": "µM"}
    ]},
    {"smiles": "CC(C)CCC[C@@H](C)C1CC[C@H]2[C@@H]3CC=C4CC(OC(=O)NC(Cc5ccc(OP(=O)(O)O)cc5)C(=O)N[C@H](CCCCNc5ccc([N+](=O)[O-])c6nonc56)C(=O)O)CC[C@]4(C)[C@H]3CC[C@]12C", "note": "(stereo partly drawn) [11a, cholesterol-(phospho)y-(NBD)k]", "values": [
      {"measurement": "presence of nano-aggregates in or on treated cells", "setting": "[3]", "result": "confirmed presence of nano-aggregates"}
    ]},
    {"smiles": "CC(C)CCC[C@@H](C)C1CC[C@H]2[C@@H]3CC=C4CC(OC(=O)NC(Cc5ccc(O)cc5)C(=O)N[C@H](CCCCNc5ccc([N+](=O)[O-])c6nonc56)C(=O)O)CC[C@]4(C)[C@H]3CC[C@]12C", "note": "(stereo partly drawn) [11b, cholesterol-y-(NBD)k]", "values": [
      {"measurement": "presence of nano-aggregates in or on treated cells", "setting": "[3]", "result": "confirmed presence of nano-aggregates"}
    ]},
    {"smiles": "N.N.[Cl][Pt][Cl]", "note": "[cisplatin, reference compound]", "values": [
      {"measurement": "inhibition of A2780 and acquired drug resistance", "setting": "A2780 cell line", "result": "caused platinum-resistance"},
      {"measurement": "IC50 against A2780cis", "setting": "A2780cis cells; 48 hours", "result": 21.2, "unit": "µg/mL"},
      {"measurement": "IC50 against A2780cis", "setting": "A2780cis cells; 72 hours", "result": 12.2, "unit": "µg/mL"},
      {"measurement": "IC50", "setting": "A2780cis cells; 72 hours, read-out: IC50 against A2780cis", "result": 41, "unit": "µM"}
    ]},
    {"smiles": "CC(C)CCC[C@@H](C)C1CC[C@H]2[C@@H]3CC=C4CC(OC(=O)NC(Cc5ccccc5)C(=O)O)CC[C@]4(C)[C@H]3CC[C@]12C", "note": "(stereo partly drawn) [compound 3, Cholesterol-D-Phe]", "values": [
      {"measurement": "effect on HeLa cells", "setting": "HeLa cells; [6]", "result": "innocuous"},
      {"measurement": "effect on A2780cis cells", "setting": "A2780cis cells; [6]", "result": "innocuous"}
    ]}
  ]
}
